Assay results from US20240132498A1, “CRYSTALLINE FORMS OF 5-(3,4-DIFLUOROBENZYL)-8-((1R,4R)-4-METHYLCYCLOHEXYL)-6,9-DIOXO-2,5,8-TRIAZASPIRO[3.5]NONANE-2-CARBALDEHYDE” (Cytokinetics, Incorporated, priority 2022, published 2024).
Entries after “also recorded” stand apart in the source; their conditions may differ.

What was measured:
CYP2B6 = biological target: T1, CYP2B6 (Homo sapiens, UniProt P20813); experiment: Time-dependent inhibition of CYP450 enzymes in human liver microsomes: CYP2B6; format: in vitro ADME
T1 construct: from tissue; host or cells: pooled human liver microsomes
T1 sequence (P20813 1-491): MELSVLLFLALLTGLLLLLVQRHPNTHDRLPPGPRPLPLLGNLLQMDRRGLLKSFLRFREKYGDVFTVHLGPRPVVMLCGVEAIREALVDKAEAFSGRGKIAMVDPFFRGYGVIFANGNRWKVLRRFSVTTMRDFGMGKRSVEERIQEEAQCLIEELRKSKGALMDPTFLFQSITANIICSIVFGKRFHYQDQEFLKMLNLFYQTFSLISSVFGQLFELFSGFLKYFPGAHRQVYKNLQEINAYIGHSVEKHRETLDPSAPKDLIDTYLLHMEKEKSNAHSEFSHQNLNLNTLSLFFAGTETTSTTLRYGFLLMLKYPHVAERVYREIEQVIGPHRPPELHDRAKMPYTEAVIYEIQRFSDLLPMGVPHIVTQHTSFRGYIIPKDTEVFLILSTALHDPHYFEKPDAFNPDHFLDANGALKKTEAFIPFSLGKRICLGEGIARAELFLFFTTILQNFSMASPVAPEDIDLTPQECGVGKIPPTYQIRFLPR
Description: (§1) An assessment of the time-dependent Inhibitory Potential of the test compounds against Principal Human Cytochrome P450 Isozymes using Human Liver Microsomes was also carried out using standard methods (Grimm et al, Drug Metab. Dispos., Jul; 37(7):1355-70. doi: 10.1124/dmd.109.026716, 2009). Pooled human microsomes and selective CYP probe substrates were used for in vitro assessment of test compounds at 25 and 50 μM as time-dependent inhibitors of […] human hepatic cytochrome P450 isozymes (CYP1A2, 2B6, 2C9, 2C19, 2D6, and 3A4). LC-MS/MS was used to quantify metabolite formation. The inhibition of each P450 enzyme in human liver microsomes was measured as the percentage decrease in the activity of marker metabolite formation as measured by LC-MS/MS compared to non-inhibited controls (=100% activity) at time zero and after 30 minutes incubation. The occurrence of any time dependent inhibition was then expressed as the fold change in enzyme activity at time zero relative to the activity after 30 minutes incubation. The time dependent inhibition for the compound 5-(3,4-difluorobenzyl)-8-((1 r,4r)-4-methylcyclohexyl)-6,9-dioxo-2,5, 8-triazaspiro [3.5]nonane-2-carbaldehyde (Compound 1) against CYP1A2, […], CYP2C8, CYP2C9, CYP2C19, CYP2D6, CYP3A4-M and CYP3A4-T is shown in Table B-12.

CYP2C19 = biological target: T2, CYP2C19 (Homo sapiens, UniProt P33261); experiment: Time-dependent inhibition of CYP450 enzymes in human liver microsomes: CYP2C19; format: in vitro ADME; details: for fold change in activity (time dependent inhibition), 2C19: human liver microsomes
T2 construct: from tissue; host or cells: pooled human liver microsomes
Description: as §1

[1] = Stability of Form II in solvents after 24 hours (HPLC); format: physicochemical; details: for Form II Peak Area T = 24 hours: 24 hours at ambient (25° C.); for Form II Peak Area: initial injection; for Visual Observations (signs of degradation in chromatograms): initial vs T = 24 hours;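 on Form II Peak Area T = 24 hours: same diluted solubility sample reinjected at the initial injection volume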
From the text: The chromatograms were then overlayed and visual signs of degradation were noted, i.e., loss of compound 1 peak area or increase of other peaks in the chromatography.

T2 sequence (P33261 whole entry): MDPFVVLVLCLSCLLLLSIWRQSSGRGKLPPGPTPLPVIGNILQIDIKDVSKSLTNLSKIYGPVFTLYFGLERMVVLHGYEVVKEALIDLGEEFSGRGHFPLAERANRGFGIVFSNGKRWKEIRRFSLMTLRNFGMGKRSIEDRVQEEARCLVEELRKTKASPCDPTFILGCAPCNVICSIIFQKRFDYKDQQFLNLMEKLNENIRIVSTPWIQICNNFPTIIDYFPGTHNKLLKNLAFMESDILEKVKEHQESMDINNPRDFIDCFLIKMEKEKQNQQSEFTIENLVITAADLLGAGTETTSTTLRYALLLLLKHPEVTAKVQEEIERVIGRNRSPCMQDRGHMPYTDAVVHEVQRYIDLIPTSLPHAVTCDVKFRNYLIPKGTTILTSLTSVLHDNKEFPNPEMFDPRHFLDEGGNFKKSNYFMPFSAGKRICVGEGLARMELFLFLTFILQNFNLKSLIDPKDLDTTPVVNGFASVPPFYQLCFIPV

Compound: C[C@H]1CC[C@H](N2CC(=O)N(Cc3ccc(F)c(F)c3)C3(CN(C=O)C3)C2=O)CC1 [Compound 1, 5-(3,4-difluorobenzyl)-8-((1r,4r)-4-methylcyclohexyl)-6,9-dioxo-2,5,8-triazaspiro[3.5]nonane-2-carbaldehyde]
- (% Activity NADPH T0)/(% Activity NADPH T30) (CYP2B6; CYP2B6, 25 μM): 1.1
- (% Activity NADPH T0)/(% Activity NADPH T30) (CYP2B6; CYP2B6, 50 μM): 1.0
- activity at 30 min, 25 µM (CYP2B6; human, pooled human liver microsomes, CYP2B6, 25 μM, 30 minutes incubation, read-out: % Activity NADPH T30): 84%
- activity at 0 min, 25 µM (CYP2B6; human, pooled human liver microsomes, CYP2B6, 25 μM, time zero, read-out: % Activity NADPH T0): 95%
- activity at 30 min, 50 µM (CYP2B6; human, pooled human liver microsomes, CYP2B6, 50 μM, 30 minutes incubation, read-out: % Activity NADPH T30): 76%
- activity at 0 min, 50 µM (CYP2B6; human, pooled human liver microsomes, CYP2B6, 50 μM, time zero, read-out: % Activity NADPH T0): 76%
- (% Activity NADPH T0)/(% Activity NADPH T30) (CYP2C19; CYP2C19, 25 μM): 1.4
- (% Activity NADPH T0)/(% Activity NADPH T30) (CYP2C19; CYP2C19, 50 μM): 1.1
- fold change in activity (time dependent inhibition), 2C19 (CYP2C19; 25 μM): 1.4 fold
- fold change in activity (time dependent inhibition), 2C19 (CYP2C19; 50 μM): no change in activity
- activity at 30 min, 25 µM (CYP2C19; human, pooled human liver microsomes, CYP2C19, 25 μM, 30 minutes incubation, read-out: % Activity NADPH T30): 86%
- activity at 0 min, 25 µM (CYP2C19; human, pooled human liver microsomes, CYP2C19, 25 μM, time zero, read-out: % Activity NADPH T0): 117%
- activity at 30 min, 50 µM (CYP2C19; human, pooled human liver microsomes, CYP2C19, 50 μM, 30 minutes incubation, read-out: % Activity NADPH T30): 75%
- activity at 0 min, 50 µM (CYP2C19; human, pooled human liver microsomes, CYP2C19, 50 μM, time zero, read-out: % Activity NADPH T0): 84%

Compound: C[C@H]1CC[C@H](N2CC(=O)N(Cc3ccc(F)c(F)c3)C3(CN(C=O)C3)C2=O)CC1 [Form II, 5-(3,4-difluorobenzyl)-8-((1r,4r)-4-methylcyclohexyl)-6,9-dioxo-2,5,8-triazaspiro[3.5]nonane-2-carbaldehyde]
- Form II Peak Area T = 24 hours ([1]; 2-BuOH): 35.2
- Form II Peak Area ([1]; 2-BuOH): 35.3
- Visual Observations (signs of degradation in chromatograms) ([1]; 2-BuOH): No sign of degradation
- Form II Peak Area T = 24 hours ([1]; 2-Me-THF): 51.5
- Form II Peak Area ([1]; 2-Me-THF): 51.7
- Visual Observations (signs of degradation in chromatograms) ([1]; 2-Me-THF): No sign of degradation
- Form II Peak Area T = 24 hours ([1]; Acetone): 167.7
- Form II Peak Area ([1]; Acetone): 166.0
- Visual Observations (signs of degradation in chromatograms) ([1]; Acetone): no visual signs of further degradation; also recorded: No sign of degradation
- Form II Peak Area T = 24 hours ([1]; DI Water): 10.8
- Form II Peak Area ([1]; DI Water): 10.8
- Visual Observations (signs of degradation in chromatograms) ([1]; DI Water): No sign of degradation
- Form II Peak Area T = 24 hours ([1]; DMSO): 194.2
- Form II Peak Area ([1]; DMSO): 193.2
- Visual Observations (signs of degradation in chromatograms) ([1]; DMSO): no visual signs of further degradation; also recorded: No sign of degradation
- Form II Peak Area T = 24 hours ([1]; EtOH): 54.7
- Form II Peak Area ([1]; EtOH): 53.1
- Visual Observations (signs of degradation in chromatograms) ([1]; EtOH): did not appear to degrade further; also recorded: Late eluting impurity peak, present
- Form II Peak Area T = 24 hours ([1]; IPA): 30.5
- Form II Peak Area ([1]; IPA): 30.3
- Visual Observations (signs of degradation in chromatograms) ([1]; IPA): No sign of degradation
- Form II Peak Area T = 24 hours ([1]; Isopropyl acetate): 66.3
- Form II Peak Area ([1]; Isopropyl acetate): 66.6
- Visual Observations (signs of degradation in chromatograms) ([1]; Isopropyl acetate): did not seem to degrade further; also recorded: Impurities eluting after compound 1
- Form II Peak Area T = 24 hours ([1]; MIBK): 85.1
- Form II Peak Area ([1]; MIBK): 85.1
- Visual Observations (signs of degradation in chromatograms) ([1]; MIBK): No sign of degradation
- Form II Peak Area T = 24 hours ([1]; MeCN): 190.4
- Form II Peak Area ([1]; MeCN): 188.0
- Visual Observations (signs of degradation in chromatograms) ([1]; MeCN): no visual signs of further degradation; also recorded: No sign of degradation
- Form II Peak Area T = 24 hours ([1]; MeOH): 202.1
- Form II Peak Area ([1]; MeOH): 199.0
- Visual Observations (signs of degradation in chromatograms) ([1]; MeOH): no visual signs of further degradation; also recorded: No sign of degradation
- Form II Peak Area T = 24 hours ([1]; THF): 177.4
- Form II Peak Area ([1]; THF): 177.3
- Visual Observations (signs of degradation in chromatograms) ([1]; THF): no visual signs of further degradation; also recorded: No sign of degradation
- Form II Peak Area T = 24 hours ([1]; Tert-Butylmetyl ether): 24.7
- Form II Peak Area ([1]; Tert-Butylmetyl ether): 24.2
- Visual Observations (signs of degradation in chromatograms) ([1]; Tert-Butylmetyl ether): Large impurity peak eluting after
- Form II Peak Area T = 24 hours ([1]; Toluene): 40.5
- Form II Peak Area ([1]; Toluene): 41.2
- Visual Observations (signs of degradation in chromatograms) ([1]; Toluene): No sign of degradation
